According to patent publication US11208412B2 (DAEGU-GYEONGBUK MEDICAL INNOVATION FOUNDATION, priority 2017, dated 2021):

Columns and labels:
Assay in all cases: Kinase selectivity, DiscoverX scanMAX Kinase assay panel (% control)
Assay type in all cases: binding
[1] = target: T1, kinases of the scanMAX Kinase assay panel (Homo sapiens, UniProt Q14164); settings: IKK-epsilon; 1 uM
T1 construct: purchased DiscoverX Co. (contract measurement) scanMAX Kinase assay panel
T1 sequence (Q14164 1-716): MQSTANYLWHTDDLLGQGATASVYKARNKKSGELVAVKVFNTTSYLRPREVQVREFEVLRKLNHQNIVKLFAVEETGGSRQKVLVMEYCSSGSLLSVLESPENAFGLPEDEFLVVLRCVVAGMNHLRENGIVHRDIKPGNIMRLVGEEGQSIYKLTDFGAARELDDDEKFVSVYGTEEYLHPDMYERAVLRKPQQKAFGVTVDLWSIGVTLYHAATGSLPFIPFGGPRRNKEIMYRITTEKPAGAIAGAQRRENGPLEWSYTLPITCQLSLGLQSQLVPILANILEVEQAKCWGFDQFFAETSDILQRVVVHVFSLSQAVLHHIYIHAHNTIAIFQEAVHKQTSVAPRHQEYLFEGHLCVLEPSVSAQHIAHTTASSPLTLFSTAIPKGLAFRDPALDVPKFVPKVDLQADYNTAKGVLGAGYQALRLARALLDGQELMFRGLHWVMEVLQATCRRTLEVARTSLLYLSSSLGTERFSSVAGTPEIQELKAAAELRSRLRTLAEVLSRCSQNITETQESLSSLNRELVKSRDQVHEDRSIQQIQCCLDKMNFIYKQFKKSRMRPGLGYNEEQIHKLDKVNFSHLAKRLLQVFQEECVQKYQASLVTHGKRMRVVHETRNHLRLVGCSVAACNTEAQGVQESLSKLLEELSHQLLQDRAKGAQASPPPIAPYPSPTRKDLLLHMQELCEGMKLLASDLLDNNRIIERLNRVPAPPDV
Procedure, shortened: (§1)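 Each enzyme is treated with drug at 1 uM in DMSO, then signal is scaled between a positive control (0%) and DMSO (100%) to give % control. Kinases with % control under 35% are scored as inhibited.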

[2] = target: T2, kinases of the scanMAX Kinase assay panel (Homo sapiens, UniProt P20794); settings: MAK; 1 uM
T2 construct: purchased DiscoverX Co. (contract measurement) scanMAX Kinase assay panel
T2 sequence (P20794 1-623): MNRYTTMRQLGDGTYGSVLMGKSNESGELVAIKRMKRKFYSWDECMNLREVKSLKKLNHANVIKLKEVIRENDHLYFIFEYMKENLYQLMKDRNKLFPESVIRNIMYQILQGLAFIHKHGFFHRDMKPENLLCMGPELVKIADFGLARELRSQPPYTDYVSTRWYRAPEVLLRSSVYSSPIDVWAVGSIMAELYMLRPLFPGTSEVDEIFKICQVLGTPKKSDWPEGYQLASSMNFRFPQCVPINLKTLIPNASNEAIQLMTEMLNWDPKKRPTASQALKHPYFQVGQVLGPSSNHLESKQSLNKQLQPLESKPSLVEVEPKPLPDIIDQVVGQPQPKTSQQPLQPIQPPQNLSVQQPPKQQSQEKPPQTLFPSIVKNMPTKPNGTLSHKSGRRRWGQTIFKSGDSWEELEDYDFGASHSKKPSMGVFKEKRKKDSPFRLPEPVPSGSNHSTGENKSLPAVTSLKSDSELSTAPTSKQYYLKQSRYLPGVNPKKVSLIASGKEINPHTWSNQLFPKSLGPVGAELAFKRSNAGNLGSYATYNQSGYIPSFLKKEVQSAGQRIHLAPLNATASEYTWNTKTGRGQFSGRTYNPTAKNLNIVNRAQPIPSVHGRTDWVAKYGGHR
Procedure, shortened: as §1

[3] = target: T3, kinases of the scanMAX Kinase assay panel (Homo sapiens, UniProt P08581, M1250T); settings: MET(M1250T); 1 uM
T3 construct: purchased DiscoverX Co. (contract measurement) scanMAX Kinase assay panel
Procedure, shortened: as §1

[4] = target: T4, kinases of the scanMAX Kinase assay panel (Homo sapiens, UniProt P35626); settings: GRK3; 1 uM
T4 construct: purchased DiscoverX Co. (contract measurement) scanMAX Kinase assay panel
T4 sequence (P35626 1-688): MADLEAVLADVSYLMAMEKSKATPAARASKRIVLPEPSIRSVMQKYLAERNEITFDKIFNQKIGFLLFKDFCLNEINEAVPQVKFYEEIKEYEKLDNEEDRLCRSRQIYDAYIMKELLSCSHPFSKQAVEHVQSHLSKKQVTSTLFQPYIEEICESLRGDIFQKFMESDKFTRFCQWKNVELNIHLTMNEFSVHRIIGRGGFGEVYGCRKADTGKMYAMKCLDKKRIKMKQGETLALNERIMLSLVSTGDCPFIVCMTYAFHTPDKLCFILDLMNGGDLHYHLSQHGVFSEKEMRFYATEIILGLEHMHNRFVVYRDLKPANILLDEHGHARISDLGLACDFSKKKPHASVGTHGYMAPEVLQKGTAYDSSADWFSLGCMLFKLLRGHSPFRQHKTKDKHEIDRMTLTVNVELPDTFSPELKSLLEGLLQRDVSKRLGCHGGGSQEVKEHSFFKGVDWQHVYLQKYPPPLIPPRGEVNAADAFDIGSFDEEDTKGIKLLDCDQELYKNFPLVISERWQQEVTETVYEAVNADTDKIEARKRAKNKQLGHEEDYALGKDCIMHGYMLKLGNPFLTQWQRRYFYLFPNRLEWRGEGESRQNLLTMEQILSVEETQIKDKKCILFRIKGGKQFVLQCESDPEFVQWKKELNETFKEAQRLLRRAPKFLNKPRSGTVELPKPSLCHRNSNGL
Procedure, shortened: as §1

[5] = target: T5, kinases of the scanMAX Kinase assay panel (Homo sapiens, UniProt Q9BXA7); settings: kinase TSSK1B; 1 uM in DMSO
T5 construct: purchased DiscoverX Co. (contract measurement) scanMAX Kinase assay panel
T5 sequence (Q9BXA7 1-367): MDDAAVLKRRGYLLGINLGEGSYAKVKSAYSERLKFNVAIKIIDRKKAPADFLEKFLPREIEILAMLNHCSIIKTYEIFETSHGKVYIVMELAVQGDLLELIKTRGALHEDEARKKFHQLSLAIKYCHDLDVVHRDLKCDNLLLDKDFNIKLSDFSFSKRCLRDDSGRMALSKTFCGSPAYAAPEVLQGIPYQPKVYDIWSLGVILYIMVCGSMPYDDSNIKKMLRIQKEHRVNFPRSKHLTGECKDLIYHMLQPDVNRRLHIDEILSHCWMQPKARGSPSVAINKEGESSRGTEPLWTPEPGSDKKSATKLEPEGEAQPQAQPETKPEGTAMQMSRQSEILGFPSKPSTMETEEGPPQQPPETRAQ
Procedure, shortened: as §1

T3 sequence (P08581 25-1390 M1250T): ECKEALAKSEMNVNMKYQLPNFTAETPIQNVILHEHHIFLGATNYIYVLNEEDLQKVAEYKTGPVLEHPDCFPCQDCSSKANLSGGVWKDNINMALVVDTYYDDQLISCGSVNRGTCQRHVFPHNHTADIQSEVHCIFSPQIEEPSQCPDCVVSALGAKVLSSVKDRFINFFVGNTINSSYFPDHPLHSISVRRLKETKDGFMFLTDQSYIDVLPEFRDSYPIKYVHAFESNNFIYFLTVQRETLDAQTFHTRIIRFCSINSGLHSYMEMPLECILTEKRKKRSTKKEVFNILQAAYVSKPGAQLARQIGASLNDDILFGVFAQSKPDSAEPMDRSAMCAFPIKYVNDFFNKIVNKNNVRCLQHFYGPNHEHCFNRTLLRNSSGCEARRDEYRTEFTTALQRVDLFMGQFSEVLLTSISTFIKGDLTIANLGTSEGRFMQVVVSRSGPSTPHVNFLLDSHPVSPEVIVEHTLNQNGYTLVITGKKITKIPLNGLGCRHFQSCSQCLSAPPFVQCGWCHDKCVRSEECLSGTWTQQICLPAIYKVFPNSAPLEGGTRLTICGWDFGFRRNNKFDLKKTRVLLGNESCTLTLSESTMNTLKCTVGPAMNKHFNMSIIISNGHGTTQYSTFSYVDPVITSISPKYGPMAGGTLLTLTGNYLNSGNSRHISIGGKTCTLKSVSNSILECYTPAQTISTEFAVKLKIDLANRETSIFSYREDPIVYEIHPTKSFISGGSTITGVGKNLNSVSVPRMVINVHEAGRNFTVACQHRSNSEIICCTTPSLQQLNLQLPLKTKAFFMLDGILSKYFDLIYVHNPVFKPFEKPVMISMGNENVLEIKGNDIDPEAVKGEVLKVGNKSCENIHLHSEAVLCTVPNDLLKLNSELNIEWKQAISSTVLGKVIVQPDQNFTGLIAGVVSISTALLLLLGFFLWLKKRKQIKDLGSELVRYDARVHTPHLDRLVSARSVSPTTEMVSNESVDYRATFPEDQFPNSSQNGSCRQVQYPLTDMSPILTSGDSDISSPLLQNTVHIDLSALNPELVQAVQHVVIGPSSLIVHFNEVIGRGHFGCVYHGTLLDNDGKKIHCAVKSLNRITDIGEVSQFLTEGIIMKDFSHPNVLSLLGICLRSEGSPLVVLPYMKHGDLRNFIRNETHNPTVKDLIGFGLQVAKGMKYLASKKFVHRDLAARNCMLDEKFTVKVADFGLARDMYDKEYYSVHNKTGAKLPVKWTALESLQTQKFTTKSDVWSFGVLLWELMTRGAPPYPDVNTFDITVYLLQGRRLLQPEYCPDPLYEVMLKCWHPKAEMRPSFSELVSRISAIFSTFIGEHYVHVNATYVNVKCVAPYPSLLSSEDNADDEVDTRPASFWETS

Compound | remaining binding at 1 µM [1] [%] | remaining binding at 1 µM [2] [%] | remaining binding at 1 µM [3] [%] | remaining binding at 1 µM [4] [%] | remaining binding at 1 µM [5] [%]
CNc1nc(Nc2ccc(C(=O)N3CCOCC3)cc2OC)nc2[nH]cc(C#N)c12 [Example 1, 2-((2-methoxy-4-(morpholine-4-carbonyl)phenyl)amino)-4-(methylamino)-7H-pyrrolo[2,3-d]pyrimidine-5-carbonitrile] | 98 | 95 | 100 | 99 | 22
CC1(Nc2nc(Nc3cnn([C@H]4CCN(C5COC5)C[C@@H]4F)c3Cl)nc3[nH]cc(C#N)c23)CC1 [Example 52, 2-((5-chloro-1-((3S,4S)-3-fluoro-1-(oxetane-3-yl)piperidine-4-yl)-1H-pyrazole-4-yl)amino)((1-methylcyclopropyl)amino)-7H-pyrrolo[2,3-d]pyrimidine-5-carbonitrile] | 9.9 | 71 | 28 | 53 | 0.6
CCNc1nc(Nc2ccc(C(=O)N3CCC(N4CCOCC4)CC3)cc2OC)nc2[nH]cc(C(F)(F)F)c12 [Example 104, (4-((4-(ethylamino)-5-(trifluoromethyl)-7H-pyrrolo[2,3-d]pyrimidine-2-yl)amino)-3-methoxyphenyl)(4-morpholinopiperidine-1-yl)methanone] | 95 | 100 | 100 | 97 | 0
